Data set [1] can be described thus: Cytotoxicity evaluation in GS4.1 cells (Cell Titer 96 AQueous One). The data set is classed as cell-based, human. To be noted: human, cellular viability. How it is done:
(§1) For cytotoxicity evaluation, GS4.1 cells were treated with compounds as described above and cellular viability was monitored using the Cell Titer 96 AQueous One Solution Cell Proliferation Assay (Promega). CC50 values were determined from the % cytotoxicity versus concentration data with Tecan Magellan software as described above.

Data set [2] concerns Huh-7 cells containing HCV Con1 subgenomic replicon (GS4.1 cells). Nature of the data set: HCV replicon assay (NS5A ELISA). The data set is classed as cell-based. Conditions: Hepatitis C virus, Huh-7; GS4.1 cells, 72 hrs, NS5A ELISA; read-out: EC50. How it is done:
General Procedure: Huh-7 cells containing HCV Con1 subgenomic replicon (GS4.1 cells) were grown in Dulbecco's Modified Eagle Medium (DMEM) supplemented with 10% fetal bovine serum (FBS), 2 mM L-glutamine, 110 mg/L sodium pyruvate, 1× non-essential amino acids, 100 U/mL penicillin-streptomycin, and 0.5 mg/mL G418 (Invitrogen). For dose-response testing, the cells were seeded in 96-well plates at 7.5×10^3 cells/well in a volume of 50 μL, and incubated at 37° C./5% CO2. Three hours after plating, 50 μL of ten 2-fold serial dilutions of compounds (highest concentration, 75 μM) were added, and cell cultures were incubated at 37° C./5% CO2 in the presence of 0.5% DMSO. Alternatively, compounds were tested at a single concentration of 15 μM. In all cases, Huh-7 cells lacking the HCV replicon served as negative control. The cells were incubated in the presence of compounds for 72 hrs after which they were monitored for expression of the NS5A protein by enzyme-linked immunosorbent assay (ELISA). For this, the plates were then fixed for 1 min with acetone/methanol (1:1, v/v), washed twice with phosphate-buffered saline (PBS), 0.1% Tween 20, blocked for 1 hr at room temperature with TNE buffer containing 10% FBS and then incubated for 2 hr at 37° C. with the anti-NS5A mouse monoclonal antibody A-236 (ViroGen) diluted in the same buffer. After washing three times with PBS, 0.1% Tween 20, the cells were incubated 1 hr at 37° C. with anti-mouse immunoglobulin G-peroxidase conjugate in TNE, 10% FBS. After washing as described above, the reaction was developed with O-phenylenediamine (Zymed). The reaction was stopped after 30 min with 2 N H2SO4, and absorbance was read at 492 nm using Sunrise Tecan spectrophotometer. EC50 values were determined from the % inhibition versus concentration data using a sigmoidal non-linear regression analysis based on four parameters with Tecan Magellan software.

Data set [3] relates to HCV genotype 2a-specific NS5A gene within the 1b-replicon. Put plainly: Luciferase replicon assay, NS5A-intergenotypic stable cell line genotype 2a. Type of data set: cell-based. Conditions: Hepatitis C virus, read-out: EC50 2a. The source says: (§2) The nucleotide sequences of the NS5A region of genotype 2a (GenBank Accession #AB047639), genotype 3a (GenBank Accession #D17763), and genotype 4a (GenBank Accession#DQ418788) were synthesized by an outside vendor. The NS5A region of each of these genotypes included the first 11 amino acids of the protease recognition sequence of genotype 1b, as well as the last 10 amino acids of genotype 1b. The NS5A gene cassettes were excised with site specific restriction endonucleases and ligated into a ZS11-luciferase genotype 1b backbone (backbone contains the genotype 1b NS3 protease, NS4a, NS4b, and NS5b coding regions) with similarly cut restriction enzyme sites. Thus, the newly constructed plasmid contains a genotype 2a-, 3a- or 4a-specific NS5A gene within the 1b-replicon.
(§3) These new intergenotypic plasmids were used to establish stable cell lines. RNA was generated from the NS5A intergenotypic plasmids and used in conjunction with a lipofectin reagent to transfect a cured Huh7 cell line. Transfected cells were selected for with G418. After selection has occurred the stable cell lines were propagated, tested for luciferase activity, and RT-PCR with genotype specific primers (either 1a, 2a, 3a, or 4a). Stable cell lines containing the intergenotypic replicon were then fully sequenced and analysed for proper expression of NS3, NS5A and NS5B proteins.
(§4) Drug titration analysis was performed using the luciferase replicon assay described herein.
(§5) The HCV luciferase replicon assay measures the ability of a test compound to inhibit HCV replication in cell culture after 3 days of treatment in a human hepatoma cell line (Huh-7) bearing a HCV replicon containing a luciferase-neomycin phosphotransferase fusion gene. The inhibition of HCV replication was measured by quantification of luciferase protein expression. Briefly, Huh-7 cells containing either the HCV genotype 1a H77 strain or genotype 1b Conl strain subgenomic luciferase replicon (H1a-luc or Zluc, respectively) were grown in DMEM containing glucose, L-glutamine and sodium pyruvate, 10% fetal bovine serum (FBS), 100 IU/mL penicillin, 100 μg/mL streptomycin, 2 mM GlutaMAX, non-essential amino acids and 0.25 (H1a-luc) or 0.5 (Zluc) mg/mL G418. GlutaMAX was obtained from Invitrogen, Corp.; all other media reagents were obtained from Mediatech, Inc. For dose-response testing, the cells were seeded in 96-well plates at 1×10^4 (H1a-luc) or 7.5×10^3 (Zluc) cells/well in a volume of 50 μL, and incubated at 37° C./5% CO2. Three hours after plating, 50 μL of ten 5-fold serial dilutions of compound were added, and cell cultures were incubated at 37° C./5% CO2 for 72 hours. In all cases, Huh-7 cells lacking the HCV replicon served as negative control. To assess luciferase expression, the media/compound was removed from the plates and ONE-glo Luciferase assay reagent (Promega) was added to each well. The assay plates were shaken for 3 minutes at room temperature and luciferase activity for each well was measured with a 1 sec read time on the Victor^3V multilabel counter using a 700 nm cut-off filter (Perkin Elmer). EC50 values were calculated from dose response curves from the resulting best-fit equations determined by Microsoft Excel and XLfit 4.1 software.
On the technique in general: In antiviral work, replicon cells carry a viral genome segment that copies itself.

Data set [4] has as its system HCV genotype 4a-specific NS5A gene within the 1b-replicon. Put plainly: Luciferase replicon assay, NS5A-intergenotypic stable cell line genotype 4a. Type of data set: cell-based. Conditions: Hepatitis C virus, read-out: EC50 4a.
From the text: as §2, §3, §4, §5

For data set [5], the system named is HCV genotype 1a H77 strain (H1a-luc replicon / 1a-H77NS5a intergenotypic replicon). Put plainly: Luciferase replicon assay, genotype 1a. The data set is classed as cell-based.
From the text: To generate the 1a-H77NS5a intergenotypic plasmid, dual cut sites were inserted into the ZS11-luciferase genotype 1b backbone that would bracket the NS5a region almost in its entirety. Using PCR and 1a-H77 specific primers also containing the corresponding restriction enzyme sites, the NS5a gene was amplified from the 1a-H77 replicon. The ZS11-luciferase genotype 1b backbone and the genotype 1a NS5a PCR products were restriction enzyme digested and then ligated using standard molecular cloning techniques. The newly constructed plasmid contains the genotype 1a-specific NS5a gene where as the backbone remains 1b as described herein.
as §3, §4, §5

Data set [6] deals with HCV genotype 3a-specific NS5A gene within the 1b-replicon. Put plainly: Luciferase replicon assay, NS5A-intergenotypic stable cell line genotype 3a. Type of data set: cell-based. Conditions: Hepatitis C virus, read-out: EC50 3a.
From the text: as §2, §3, §4, §5

In data set [7] the test system is HCV genotype 1b Conl strain subgenomic luciferase replicon (Zluc). Nature of the data set: Luciferase replicon assay, genotype 1b. To be noted: Hepatitis C virus, 72 h, read-out: EC50 1b. Type of data set: cell-based. The procedure:
as §5

Data set [8] can be described thus: Cytotoxicity evaluation in luciferase replicon cells (Cell Titer 96 AQueous One). The data set is classed as cell-based, human. Conditions: human; Table 1B, cellular viability. How it is done:
For cytotoxicity evaluation, H1a-luc or Zluc cells were treated with compounds as described above and cellular viability was monitored using the Cell Titer 96 AQueous One Solution Cell Proliferation Assay (Promega). Plates were then read at 490 nm in a Victor^3V 1420 multilabel counter (Perkin Elmer) and CC50 concentrations were determined using Microsoft Excel and XLfit 4.1 software.

The test system of the next data set is GS4.1 cells. Nature of the data set: Cytotoxicity evaluation in GS4.1 cells (Cell Titer 96 AQueous One). Conditions: cellular viability. Type of data set: cell-based, human. How it is done: as §1
[9] abbreviates: Hepatitis C virus, read-out: EC50 1a, genotype 1a.

Usually CC50 stands for the concentration at which the toxic effect on the cells reaches its halfway point. What is called EC50 is the concentration that produces a half-maximal response.

Read-outs that look alike come from different tables or passages of the source.

As for `COC(=O)N[C@@H](C(=O)N1CCCC1c1ncc(-c2cn3cc(-c4ccc(-c5cnc([C@@H]6CCCN6C(=O)[C@H](NC(=O)OC)c6ccccc6)[nH]5)cc4)nc3s2)[nH]1)c1ccccc1` (stereo partly drawn) [A60], the CC50 in data set [1] is > 75000 nM. For the same compound, in [2], the EC50 was < 1 nM.

On to `COC(=O)N[C@H](C(=O)N1CCCC1c1ncc(-c2csc3c(-c4ccc(-c5cnc(C6CCCN6C(=O)[C@H](NC(=O)OC)c6ccccc6)[nH]5)cc4)csc23)[nH]1)C(C)C` (stereo partly drawn) [Compound A114], for which the EC50 in data set [3] was < 0.1 nM; in data set [4], < 0.1 nM; in [5] (setting [9]), 0.1 to 1 nM; in [5] (read-out: EC50 1a, genotype 1a), < 0.1 nM; in data set [6], < 0.1 nM; in data set [7] it was < 0.1 nM.

For `COC(=O)N[C@H](C(=O)N1CCC[C@H]1c1nc(-c2ccc(-c3csc4c(Br)csc34)cc2)c[nH]1)C(C)C` [Compound A155, [(S)-1-((S)-2-{4-[4-(6-bromo-thieno[3,2-b]thiophen-3-yl)-phenyl]-1H-imidazol-2-yl}-pyrrolidine-1-carbonyl)-2-methyl-propyl]-carbamic acid methyl ester], the CC50 in data set [1] was 10000 to 75000 nM. Also, the EC50 in data set [2] was 10 to 100 nM.

With `COC(=O)N[C@H](C(=O)N1CCC[C@H]1c1nc2ccc(-c3csc4c(-c5ccc6nc([C@@H]7CCCN7C(=O)[C@H](NC(=O)OC)c7ccccc7)[nH]c6c5)csc34)cc2[nH]1)C(C)C` [Compound A208], the CC50 at 72 h in [8] was > 75000 nM. Moreover, the EC50 in data set [3], in data set [4], in data set [5] (setting [9]), in data set [6] and in [7] was < 0.1 nM throughout.

In [8], `COC(=O)NC(C(=O)N1CCCC1c1ncc(-c2cc3sc(-c4ccc5[nH]c(C6CCCN6C(=O)C(NC(=O)OC)C(C)C)nc5c4)cc3s2)[nH]1)C(C)C` (stereo in doubt) [Compound A176, ((S)-1-{(S)-2-[5-(5-{(S)-2-[1-((S)-2-methoxycarbonylamino-3-methyl-butyryl)-pyrrolidin-2-yl]-3H-benzoimidazol-5-yl}-thieno[3,2-b]thiophen-2-yl)-1H-imidazol-2-yl]-pyrrolidine-1-carbonyl}-2-methyl-propyl)-carbamic acid methyl ester] returned a half-maximal cytotoxic concentration (CC50) at 72 h of 10000 to 75000 nM. For the same compound, the 50% effective concentration (EC50) is 0.1 to 1 nM in data set [3]; 0.1 to 1 nM in data set [4]; 0.1 to 1 nM in data set [5] (setting [9]); 0.1 to 1 nM in data set [6]; < 0.1 nM in data set [7].

As for `COC(=O)N[C@H](C(=O)N1CCC[C@H]1c1ncc(-c2ccc(-c3cc4sc(-c5cnc([C@@H]6CCCN6C(=O)[C@@H](NC(=O)OC)C(C)C)[nH]5)cc4s3)cc2)[nH]1)C(C)C` [Compound A126, [(S)-1-((S)-2-{5-[4-(5-{2-[(S)-1-((S)-2-Methoxycarbonylamino-3-methyl-butyryl)-pyrrolidin-2-yl]-3H-imidazol-4-yl}-thieno[3,2-b]thiophen-2-yl)-phenyl]-1H-imidazol-2-yl}-pyrrolidine-1-carbonyl)-2-methyl-propyl]-carbamic acid methyl ester], the CC50 in the data set with GS4.1 cells is > 75000 nM. Also, the CC50 at 72 h in data set [8] was > 75000 nM. Also, the concentration for a half-maximal effect (EC50) is 0.1 to 1 nM in data set [3]; < 1 nM in data set [2]; < 0.1 nM in [4]; 1 to 10 nM in data set [6]; < 0.1 nM in data set [7].

Regarding `COC(=O)N[C@H](C(=O)N1CCC[C@H]1c1ncc(-c2ccc(-c3csc4c(-c5cnc([C@@H]6CCCN6C(=O)[C@H](NC(=O)OC(C)(C)C)c6ccccc6)[nH]5)csc34)cc2)[nH]1)C(C)C` [Compound A111, [(S)-1-((S)-2-{4-[4-(6-{(S)-2-[1-((R)-2-tert-butoxycarbonylamino-2-phenyl-acetyl)-pyrrolidin-2-yl]-3H-imidazol-4-yl}-thieno[3,2-b]thiophen-3-yl)-phenyl]-1H-imidazol-2-yl}-pyrrolidine-1-carbonyl)-2-methyl-propyl]-carbamic acid methyl ester], the CC50 in the data set on GS4.1 cells is > 75000 nM. For the same compound, the CC50 at 72 h in data set [8] was > 75000 nM. Moreover, the EC50 in [3] was < 0.1 nM; in [2], < 1 nM; in [4] it was < 0.1 nM; in [6], < 0.1 nM; in [7], < 0.1 nM.

As to `COC(=O)N[C@H](C(=O)N1CCC[C@H]1c1ncc(-c2ccc(-c3cc4sc(-c5ccc6[nH]c([C@@H]7CCCN7C(=O)[C@H](NC(=O)OC)c7ccccc7)nc6c5)cc4s3)cc2)[nH]1)C(C)C` [Compound A194, [(S)-1-((S)-2-{4-[4-(5-{(S)-2-[1-((R)-2-methoxycarbonylamino-2-phenyl-acetyl)-pyrrolidin-2-yl]-3H-benzoimidazol-5-yl}-thieno[3,2-b]thiophen-2-yl)-phenyl]-1H-imidazol-2-yl}-pyrrolidine-1-carbonyl)-2-methyl-propyl]-carbamic acid methyl ester], the half-maximal cytotoxic concentration (CC50) at 72 h in data set [8] was > 75000 nM. Besides, the EC50 in data set [3] was 1 to 10 nM; in [4], < 0.1 nM; in data set [5] (setting [9]), 0.1 to 1 nM; in data set [6] it was 0.1 to 1 nM; in [7], < 0.1 nM.

Source of the values: US9187496B2 (priority 2009, dated 2015).
